Laboratory results from publication PMC7160673, “A Degenerate Peptide Library Approach to Reveal Sequence Determinants of Methyllysine-Driven Protein Interactions” (Frontiers in Cell and Developmental Biology, 2020).
Where a SMILES comes first, the peptide text is derived from it. [ ]: non-standard residue; d: D form. The star is where a group is joined. 5FAM = O=C1OC2(c3ccc(O)cc3Oc3cc(O)ccc32)c2ccc(C(=O)*)cc21; Lys(Me3) = C[N+](C)(C)CCCC[C@H](N)C(=O)O

What was measured:
Assay type in all cases: binding
CDYL2 chromo [1] = biological target: T1, CDYL2 chromo (Homo sapiens, UniProt Q8N8U2); assay: Fluorescence polarization assay, CDYL2 chromo; conditions: 10 nM N-terminal FAM peptide, 25 mM HEPES pH 7.5, 100 mM NaCl, 0.05% NP-40, average of 4 measurements from 2 independent experiments, error SD (Figure 4C)
T1 construct: 1-75; made in house; host or cells: E. coli BL21
T1 sequence (Q8N8U2 1-75): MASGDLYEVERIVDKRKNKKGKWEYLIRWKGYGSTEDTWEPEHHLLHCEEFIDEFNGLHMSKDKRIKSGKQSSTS
Experimental: Plasmids encoding N-terminal GST fusions of each reader domain (Supplementary Table S1) were transformed into BL21 E. coli and protein expression was induced with 0.5 mM IPTG at 16°C for 6–16 h. Induced bacterial pellets were suspended in 30 mL cold 1× PBS supplemented with 1 mM DTT and 1 mM PMSF. Next, bacteria were incubated with lysozyme (Thermo #89833 LOT#ta262343) and 1 μL of Pierce universal nuclease (Pierce #88702 LOT#00775219) on ice for 30 min followed by 3 rounds of sonication (30 s sonication with 10 s rest, all on ice) using a Qsonica ultrasonic processor (500 W 20 kHz with 1/8” microtip) at 40% amplitude. Lysed bacteria were centrifuged at 38465 rcf for 45 min at 4°C. Cleared supernatant was incubated with 5 mL of Glutathione resin (Thermo #16101 LOT#UD285112) with rotation at 4°C for 16 h. Bound protein was washed 3× with 10 mL cold 1× PBS and eluted twice with 10 mL of 25 mM HEPES pH 7.5, 10 mM L-glutathione (Sigma), and 100 mM NaCl. Protein was concentrated by centrifugation at 1,500 rpm on a Sorvall Legend X1 centrifuge in Amicon Ultra-15 centrifugal filter units (UFC#903024). Protein was resuspended in 25 mM HEPES pH 7.5 and 100 mM NaCl and concentrated by centrifugation as above three times. Protein was quantified by absorbance measurement at 280 nm divided by the computed extinction coefficient (ExPASy) ([Gasteiger et al., 2003]) of the GST-tagged protein domain.
Peptides functionalized with N-terminal 5-carboxyfluorescin (FAM) were synthesized by Genscript. All 7-mer motifs were synthesized with flanking glycines to mimic the Kme-OPL design. Binding assays were done in black 384 well plates (Corning #3575). […] Polarization was measured on a Synergy Neo fluorescence plate reader (Biotek) with a 485 ± 10 nm excitation filter and a 528 ± 10 nm emission filter. […] Anisotropy units (A) were calculated using the equation A = (2P)/(3-P). Dissociation constants were determined by non-linear regression analysis of anisotropy curves by specific binding with Hill slope in GraphPad version 8.3.0.

CST 9733 (anti-H3K27me3) = assay: Histone peptide microarray, CST 9733; conditions: histone peptide array signal normalized to the highest peptide average per subarray, hits; CST 9733 LOT:14 dilution 1:5,000
MPP8 chromo = biological target: T2, MPP8 chromo (Homo sapiens, UniProt Q99549); assay: Histone peptide microarray, MPP8 chromo; conditions: normalized histone peptide array signal, hits; hybridization with 1 M MPP8 chromo (so in the source); two subarrays
T2 construct: 50-118; made in house; host or cells: E. coli BL21
T2 sequence (Q99549 50-118): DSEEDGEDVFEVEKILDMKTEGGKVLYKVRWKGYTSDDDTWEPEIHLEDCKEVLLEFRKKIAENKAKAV
Experimental: (§1) Peptide microarrays were fabricated using an Aushon 2470 microarrayer and used as described ([Cornett et al., 2017]) with the following modifications. Protein and antibody hybridization steps were performed in buffer containing 25 mM HEPES pH 7.5, 100 mM NaCl, 0.5% BSA (w/v), and 0.1% NP-40. Slides were washed 3 × 5 min in PBS supplemented with 0.1% Tween-20 between each hybridization step. Antibodies used were primary anti-GST (Sigma #7781, 1:2,000 dilution) and an AlexaFluor 647-labeled secondary antibody (Life Technologies A-21245, 1:5,000 dilution). […] Full lists of peptides queried by array analysis are in Supplementary Table S2.

[2] = tested on: ABClonal #A2355, anti-H3K4me1; assay: Histone peptide microarray, ABclonal A2355; conditions: Abclonal A2355 (anti-H3K4me1) hits
53BP1 TTD = assay: Histone peptide microarray, 53BP1 TTD; conditions: 53BP1 TTD hits, average signal per peptide
Method in brief: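 Printed histone peptide arrays; hybridization buffer 25 mM HEPES pH 7.5 / 100 mM NaCl / 0.5% BSA / 0.1% NP-40. Washes PBS + 0.1% Tween-20, 3 × 5 min per step. Detection: anti-GST 1:2,000 → AlexaFluor 647 secondary 1:5,000.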

[3] = tested on: Millipore #07-449, anti-H3K27me3; assay: Histone peptide microarray, Millipore 07-449; conditions: Millipore 07-449 (anti-H3K27me3) hits, average signal per peptide
[4] = tested on: Active Motif #39161, anti-H3K9me3; assay: Histone peptide microarray, Active Motif 39161; conditions: Active Motif 39161 (anti-H3K9me3) hits
CDYL2 chromo [5] = biological target: T1, CDYL2 chromo; assay: Histone peptide microarray, CDYL2 chromo; conditions: normalized histone peptide array signal, hits; hybridization with 1 M CDYL2 chromo (so in the source); two subarrays
Experimental: as §1

[6] = tested on: Abcam #ab8895, anti-H3K4me1; assay: Histone peptide microarray, Abcam ab8895; conditions: Abcam ab8895 (anti-H3K4me1) hits, average signal per peptide

Compound	Kd (CDYL2 chromo [1])	Avg Signal (CST 9733 (anti-H3K27me3))	Avg Signal (MPP8 chromo)	Avg Signal [2]	Avg Signal (53BP1 TTD)	Avg Signal [3]	Avg Signal [4]	Avg Signal (CDYL2 chromo [5])	Avg Signal [6]
C[C@H](NC(=O)[C@H](CCCCN)NC(=O)CN)C(=O)N[C@@H](CCCCN)C(=O)N[C@@H](CCCC[N+](C)(C)C)C(=O)N[C@H](C(=O)NCC(=O)N[C@@H](CCCCN)C(=O)NCC(=O)O)[C@@H](C)O [GKAK(Kme3)TGKG] (H-GKAK[Lys(Me3)]TGKG-OH)	3.6 ± 0.73 µM	–	–	–	–	–	–	–	–
C[C@H](NC(=O)[C@@H](NC(=O)CNC(=O)c1ccc2c(c1)C(=O)OC21c2ccc(O)cc2Oc2cc(O)ccc21)[C@@H](C)O)C(=O)N[C@@H](CCCNC(=N)N)C(=O)N[C@@H](CCCC[N+](C)(C)C)C(=O)N[C@@H](CO)C(=O)N[C@H](C(=O)NCC(=O)NCC(=O)O)[C@@H](C)O [GTAR(Kme3)STGG] (5FAM-GTAR[Lys(Me3)]STGG-OH)	18.4 ± 6 µM	–	–	–	–	–	–	–	–
C[C@H](NC(=O)[C@H](Cc1c[nH]c2ccccc12)NC(=O)CN)C(=O)N[C@@H](Cc1ccc(O)cc1)C(=O)N[C@@H](CCCC[N+](C)(C)C)C(=O)N[C@H](C(=O)NCC(=O)N[C@@H](CCCCN)C(=O)NCC(=O)O)[C@@H](C)O [GWAY(Kme3)TGKG] (H-GWAY[Lys(Me3)]TGKG-OH)	0.1 ± 0.0066 µM	–	–	–	–	–	–	–	–
ARTK(Me3)QTAR(Me2s)K(Me3)STGGKAPRKQL-K(Biot)-NH2 [H3.1K4me3R8me2sK9me3]	–	0.01805	0.7903	0.001264	0.09278	0.05738	0.5974	0.4093	–
ARTK(Me3)QTARK(Me3)STGGKAPRKQL-K(Biot)-NH2 [H3.1K4me3K9me3]	–	0.02074	0.8973	0.008666	0.1303	0.1282	1	0.4091	0.01482
ARTKQTAR(Me2a)K(Me3)STGGKAPRKQL-K(Biot)-NH2 [H3.1R8me2aK9me3]	–	0.008858	0.8359	0.0005778	0.2106	0.01827	0.6713	0.3975	0.1096
ARTKQTAR(Me)K(Me3)STGGKAPRKQL-K(Biot)-NH2 [H3.1R8me1K9me3]	–	0.005418	0.8612	0.008113	0.134	0.03826	0.7313	0.4762	0.156
